Experimental data as given in patent publication US12594261B2, “Use of heterocyclic derivatives with cardiomyocyte proliferation activity for treatment of heart diseases” (SHANGHAI EAST HOSPITAL (EAST HOSPITAL, TONGJI UNIVERSITY …, priority 2019, dated 2026).

System: neonatal rat ventricular myocytes (NRVMs)
Assay: Myocyte proliferation assay (EdU) in neonatal rat ventricular myocytes
Type: cell-based
Settings: Rattus norvegicus, Ventricular myocyte, growth relative to blank myocyte growth without compound added; for activation at 1 µM: 1 uM compound; for activation at 3 µM: 3 uM compound; for activation at 10 µM: 10 uM compound
Description: 1. Isolation of and Culture Neonatal Rat Ventricular Myocytes (NRVMs)
Ventricles from neonatal rats were separated from the atria, cut into small pieces (about 2×2 mm^2) and then dissociated in Ca^2+-free HBSS containing 0.125 mg ml-1 trypsin (Gibco), 10 μg ml-1 DNase II (Sigma) and 0.1 mg ml-1 collagenase type IV (Sigma). The digestion was carried out under constant stirring at 37° C. for 5 min. The supernatant was collected with FBS (Gibco) after each digestion period. After digestion, the collected supernatant was centrifuged at 1000 g for 10 min at room temperature, and then cell pellets were resuspended in DMEM (Gibco) supplemented with 10% FBS and with 100 uM 5-bromo-2′-deoxyuridine (Sigma). The resuspended cells were passed through a cell strainer ([…], BD Falcon) and seeded onto 100-mm plastic dishes for 2 h at 37° C. in a 5% CO2 to remove fibroblasts, the supernatant was then collected and plated onto 1% gelatin (Sigma)-coated dishes. 24 h after the seeding, the medium was changed to DMEM (Gibco) containing 2% FBS (Gibco), 1% insulin-transferrin-selenium (ITS; Gibco), 1% Penicillin-Streptomycin (Gibco). After 24 hours of low serum culture, remove the medium with DMEM (Gibco) containing 6% FBS (Gibco), 1% insulin-transferrin-selenium (ITS; Gibco), 1% Penicillin-Streptomycin (Gibco), different concentrations of compounds (the compounds were pre-diluted in the medium and the drug concentration was 10 uM, 3 uM, 1 uM, fully mixed). After 36 h add Edu substrate (Invitrogen) according to the manufacturer's guidelines, and then after 12 h cell can be used.
2.1. Immobilization: Remove the medium and fix the cells with […] in 200 ul (whichever is covered) for 15 min and wash the cells twice with 500 ul of PBS for 5 min each time.
2.2. Broken membrane: Add 200 ul of 0.3% Triton-X 100 (diluted in PBS) to each well, incubate for 10-15 min at room temperature (the time should not be too long), and wash the cells twice with 500 ul of PBS for 5 min each time.
2.3. Blocking: Add 200 ul of 10% normal goat serum (diluted with 0.1% PBST) to each well, incubate for 1 h at room temperature, and wash twice with 500 ul of 0.1% PBST for 5 min each time.
2.4. Primary antibody: dilute the primary antibody (abcam, ab8295) to blocking solution at a ratio of 1:200, add 100 ul per well, incubate for 1 h at room temperature (may be slightly longer than 2-3 h), wash the cells twice with 500 ul 0.1% PBST for 5 min each time.
2.5. Secondary antibody: Dilute the fluorescently labeled secondary antibody (abcam, ab150117) into blocking solution at a ratio of 1:200, add 100 ul per well, incubate for 1 h at room temperature (the time should not be too long), wash the cells twice with 0.1% PBST for 5 min each time, pay attention to the whole process. Protected from light.
2.6. Edu staining (Invitrogen C10338)
2.6.1 Prepare Click-iT® reaction cocktail according to Table 3. It was important to add the ingredients in the order listed in the table; otherwise, the reaction would not proceed optimally. Use the Click-iT® reaction cocktail within 15 minutes of preparation.
2.6.2 Add 0.1 mL of Click-iT® reaction cocktail to each well containing a coverslip. Rock the plate briefly to ensure that the reaction cocktail is distributed evenly over the coverslip.
2.6.3 Incubate the plate for 30 minutes at room temperature, protected from light.
2.6.4 Remove the reaction cocktail, then wash the cells twice with 0.1% PBST for 5 min each time.
2.7. DAPI staining: DAPI stain was diluted to PBS at a ratio of 1:1000, 100 ul per well, incubated for 30 min at room temperature, and the cells were washed twice with PBS for 5 min each.
We used Molecular Devices' Image Xpress Micro Confocal for high-throughput photo and data analysis.

Structure (SMILES)	activation at 1 µM	activation at 3 µM	activation at 10 µM
CN1C(=O)/C(=C/c2ccc(F)cc2)N=C1N [TJU-B050, (4Z)-2-amino-4-[(4-fluorophenyl)methylidene]-1-methyl-4,5-dihydro-1H-imidazol-5-one]	< 10%	< 10%	10 to 50%
CCNC1=N/C(=C\c2ccc3c(c2)OCO3)C(=O)N1 [TJU-B040, (4Z)-4-[(2H-1,3-benzodioxol-5-yl)methylidene]-2-(ethylamino)-4,5-dihydro-1H-imidazol-5-one]	10 to 50%	10 to 50%	10 to 50%
O=C1NC(NCCN2CCOCC2)=N/C1=C\c1ccc2c(c1)OCO2 [TJU-B004, (4Z)-4-[(2H-1,3-benzodioxol-5-yl)methylidene]-2-{[2-(morpholin-4-yl)ethyl]amino}-4,5-dihydro-1H-imidazol-5-one]	< 10%	10 to 50%	> 50%
O=C1NC(NCCN2CCOCC2)=N/C1=C\c1ccc2c(c1)OCCO2 [TJU-B026, (4Z)-4-[(2,3-dihydro-1,4-benzodioxin-6-yl)methylidene]-2-{[2-(morpholin-4-yl)ethyl]amino}-4,5-dihydro-1H-imidazol-5-one]	10 to 50%	< 10%	> 50%
CN1C(=O)/C(=C/c2ccc3c(c2)OCO3)N=C1N [TJU-B057, (4Z)-2-amino-4-[(2H-1,3-benzodioxol-5-yl)methylidene]-1-methyl-4,5-dihydro-1H-imidazol-5-one]	10 to 50%	< 10%	< 10%
COc1cc(/C=C2\N=C(Nc3ccccc3)NC2=O)cc2c1OCO2 [TJU-B051, (4Z)-4-[(7-methoxy-2H-1,3-benzodioxol-5-yl)methylidene]-2-(phenylamino)-4,5-dihydro-1H-imidazol-5-one]	< 10%	< 10%	10 to 50%
CC(C)NC1=N/C(=C\c2ccc3c(c2)OCO3)C(=O)N1 [TJU-B038, (4Z)-4-[(2H-1,3-benzodioxol-5-yl)methylidene]-2-[(propan-2-yl)amino]-4,5-dihydro-1H-imidazol-5-one]	10 to 50%	10 to 50%	10 to 50%
CC(C)NC1=N/C(=C\c2ccc3c(c2)OCO3)C(=O)N1C [TJU-B016, (4Z)-4-[(2H-1,3-benzodioxol-5-yl)methylidene]-1-methyl-2-[(propan-2-yl)amino]-4,5-dihydro-1H-imidazol-5-one]	< 10%	10 to 50%	> 50%
COc1ccc(/C=C2\N=C(N)N(C)C2=O)cc1OC [TJU-B070, (4Z)-2-amino-4-[(3,4-dimethoxyphenyl)methylidene]-1-methyl-4,5-dihydro-1H-imidazol-5-one]	< 10%	< 10%	< 10%
CN1C(=O)/C(=C/c2cccc(Cl)c2)N=C1N [TJU-B056, (4Z)-2-amino-4-[(3-chlorophenyl)methylidene]-1-methyl-4,5-dihydro-1H-imidazol-5-one]	< 10%	< 10%	< 10%
COc1ccc(/C=C2\N=C(Nc3ccccc3)NC2=O)cc1OC [TJU-B085, (4Z)-4-[(3,4-dimethoxyphenyl)methylidene]-2-(phenylamino)-4,5-dihydro-1H-imidazol-5-one]	< 10%	< 10%	< 10%
CN1C(=O)/C(=C/c2ccc3c(c2)OCO3)N=C1NCC1CC1 [TJU-B052, (4Z)-4-[(2H-1,3-benzodioxol-5-yl)methylidene]-2-[(cyclopropylmethyl)amino]-1-methyl-4,5-dihydro-1H-imidazol-5-one]	10 to 50%	10 to 50%	10 to 50%
O=C1NC(NCCN2CCOCC2)=N/C1=C\c1ccc2c(c1)OC(F)(F)O2 [TJU-B066, (4Z)-4-[(2,2-difluoro-2H-1,3-benzodioxol-5-yl)methylidene]-2-{[2-(morpholin-4-yl)ethyl]amino}-4,5-dihydro-1H-imidazol-5-one]	10 to 50%	< 10%	< 10%
Cc1ccc(NC2=N/C(=C\c3ccc4c(c3)OCO4)C(=O)N2)cc1 [TJU-B110, (4Z)-4-[(2H-1,3-benzodioxol-5-yl)methylidene]-2-[(4-methylphenyl)amino]-4,5-dihydro-1H-imidazol-5-one]	10 to 50%	< 10%	< 10%
O=C1NC(NC2CCCCC2)=N/C1=C\c1ccc2c(c1)OCO2 [TJU-B253, (4Z)-4-[(2H-1,3-benzodioxol-5-yl)methylidene]-2-(cyclohexylamino)-4,5-dihydro-1H-imidazol-5-one]	< 10%	< 10%	< 10%
O=C1NC(Nc2ccccc2)=N/C1=C\c1ccc2c(c1)OCCO2 [TJU-B007, (4Z)-4-[(2,3-dihydro-1,4-benzodioxin-6-yl)methylidene]-2-(phenylamino)-4,5-dihydro-1H-imidazol-5-one]	< 10%	10 to 50%	> 50%
COc1ccccc1NC1=N/C(=C\c2ccc3c(c2)OCO3)C(=O)N1 [TJU-B254, (4Z)-4-[(2H-1,3-benzodioxol-5-yl)methylidene]-2-[(2-methoxyphenyl)amino]-4,5-dihydro-1H-imidazol-5-one]	< 10%	< 10%	< 10%
NC1=N/C(=C\c2ccc3c(c2)OC(F)(F)O3)C(=O)N1 [TJU-B049, (4Z)-2-amino-4-[(2,2-difluoro-2H-1,3-benzodioxol-5-yl)methylidene]-4,5-dihydro-1H-imidazol-5-one]	10 to 50%	< 10%	10 to 50%
O=C1NC(Nc2ccc(Cl)cc2)=N/C1=C\c1ccc2c(c1)OCO2 [TJU-B060, (4Z)-4-[(2H-1,3-benzodioxol-5-yl)methylidene]-2-[(4-chlorophenyl)amino]-4,5-dihydro-1H-imidazol-5-one]	< 10%	< 10%	< 10%
O=C1NC(Nc2ccccc2)=NC1Cc1ccc2c(c1)OCO2 (stereo not drawn) [TJU-B005, 4-[(2H-1,3-benzodioxol-5-yl)methyl]-2-(phenylamino)-4,5-dihydro-1H-imidazol-5-one]	10 to 50%	< 10%	> 50%
O=C1NC(c2ccccc2)=N/C1=C\c1ccc2c(c1)OC(F)(F)O2 [TJU-B063, (4Z)-4-[(2,2-difluoro-2H-1,3-benzodioxol-5-yl)methylidene]-2-phenyl-4,5-dihydro-1H-imidazol-5-one]	< 10%	> 50%	< 10%
CN1C(=O)/C(=C/c2ccccc2)N=C1N [TJU-B045, (4Z)-2-amino-1-methyl-4-(phenylmethylidene)-4,5-dihydro-1H-imidazol-5-one]	< 10%	< 10%	10 to 50%
CNC1=N/C(=C\c2ccc3c(c2)OCO3)C(=O)N1 [TJU-B033, (4Z)-4-[(2H-1,3-benzodioxol-5-yl)methylidene]-2-(methylamino)-4,5-dihydro-1H-imidazol-5-one]	< 10%	< 10%	10 to 50%
O=C1NC(NCC2CC2)=N/C1=C\c1ccc2c(c1)OCO2 [TJU-B029, (4Z)-4-[(2H-1,3-benzodioxol-5-yl)methylidene]-2-[(cyclopropylmethyl)amino]-4,5-dihydro-1H-imidazol-5-one]	< 10%	< 10%	10 to 50%
